In patent US12521440B2, “Degradation of bruton's tyrosine kinase (BTK) by conjugation of BTK inhibitors with E3 ligase ligand and methods of use” (BeOne Medicines I GmbH, priority 2021, dated 2026) one finds IC50 and DC50 data, which are given here for 17 compounds.

For experiment [1], the system named is HEK-293 cells. Description: HEK-293 cytotoxicity detection (CellTiter-Glo). It counts as cell-based. The note with it: Homo sapiens, 72 h incubation, read-out: HEK293. In outline: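 HEK-293 cells exposed 72 h to 8 compound concentrations (4-fold dilution series, 0.2% DMSO). Viability read as CellTiter-Glo luminescence; IC50 from four-parameter logistic fit of percent inhibition.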
A general note: Cellular ATP, detected with luciferase, serves as a proxy for viable cell number.

The target in experiment [2] is T1, BTK (Homo sapiens, UniProt Q06187).
T1 construct: endogenous in cells; host or cells: TMD-8 cells
The experiment can be described thus: BTK degradation in TMD-8 cells (HTRF assay). It counts as cell-based. The note with it: 6 h treatment, HTRF BTK degradation IC50 (DC50). Summed up:
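TMD-8 cells exposed to 8 concentrations (6-fold serial dilution from 1 mM 500× DMSO stocks; 0.2% DMSO final) for 6 h. Lysates incubated overnight at room temperature with HTRF antibodies, read at 665/620 nm. DC50 from four-parameter logistic fit of percent inhibition.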

Counter-ions that a name gives are not always drawn. Some results are limits rather than exact numbers.

One may read the DC50 as the concentration at which degradation of the target reaches its halfway point. Read a high DC50 as degradation only at high concentration.

T1 sequence (Q06187 whole entry): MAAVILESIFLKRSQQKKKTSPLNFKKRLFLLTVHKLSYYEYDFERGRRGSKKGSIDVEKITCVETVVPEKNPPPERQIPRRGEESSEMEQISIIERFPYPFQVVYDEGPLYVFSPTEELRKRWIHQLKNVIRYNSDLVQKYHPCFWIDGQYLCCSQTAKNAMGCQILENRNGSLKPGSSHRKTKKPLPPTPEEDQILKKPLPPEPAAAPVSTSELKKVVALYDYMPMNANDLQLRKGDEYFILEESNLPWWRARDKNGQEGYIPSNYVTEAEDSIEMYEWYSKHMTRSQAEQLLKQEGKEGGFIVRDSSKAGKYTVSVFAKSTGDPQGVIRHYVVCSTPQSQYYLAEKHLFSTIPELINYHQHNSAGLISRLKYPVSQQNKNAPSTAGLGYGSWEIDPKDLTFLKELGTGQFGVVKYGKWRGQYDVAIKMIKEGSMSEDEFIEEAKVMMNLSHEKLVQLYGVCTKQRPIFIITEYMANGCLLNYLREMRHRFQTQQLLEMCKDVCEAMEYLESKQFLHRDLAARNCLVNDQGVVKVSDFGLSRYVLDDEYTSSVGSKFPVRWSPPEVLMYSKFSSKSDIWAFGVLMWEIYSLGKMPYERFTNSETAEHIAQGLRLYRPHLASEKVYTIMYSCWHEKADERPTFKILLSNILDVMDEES

Consider `Cc1cc(-c2cc(Nc3ccc(N4CCN([C@H]5C[C@H](c6ccc(N[C@H]7CCC(=O)NC7=O)cc6)C5)CC4)cn3)ncn2)ccc1[C@@H](C)NC(=O)c1nc(C(C)(C)C)no1` [Example 53, 3-(tert-butyl)-N—((R)-1-(4-(6-((5-(4-((1S,3r)-3-(4-(((S)-2,6-dioxopiperidin-3-yl)amino)phenyl)cyclobutyl)piperazin-1-yl)pyridin-2-yl)amino)pyrimidin-4-yl)-2-methylphenyl)ethyl)-1,2,4-oxadiazole-5-carboxamide formate], for which the IC50 in experiment [1] is more than 10000 nM. Also, in experiment [2], the 50% degradation concentration (DC50) turned out to be 1.91 nM.

Take `Cc1cc(-c2cc(Nc3ccc(N4CCC5(CC4)CN(C(=O)C4CCN(c6ccc(N7CCC(=O)NC7=O)cc6)C4)C5)cn3)ncn2)ccc1[C@@H](C)NC(=O)c1nc(C(C)(C)C)no1` (stereo partly drawn) [Example 38, 3-(tert-butyl)-N-((1R)-1-(4-(6-((5-(2-(1-(4-(2,4-dioxotetrahydropyrimidin-1(2H)-yl)phenyl)pyrrolidine-3-carbonyl)-2,7-diazaspiro[3.5]nonan-7-yl)pyridin-2-yl)amino)pyrimidin-4-yl)-2-methylphenyl)ethyl)-1,2,4-oxadiazole-5-carboxamide]: the IC50 in experiment [1] is more than 10000 nM. Also, the half-maximal degradation concentration (DC50) in experiment [2] was 0.954 nM.

Take `Cc1cc(-c2cc(Nc3ccc(N4CCN(CC5CCN(c6cccc(CN7CCC(=O)NC7=O)c6)CC5)CC4)cn3)ncn2)ccc1[C@@H](C)NC(=O)c1nc(C(C)(C)C)no1` [Example 57, (R)-3-(tert-butyl)-N-(1-(4-(6-((5-(4-((1-(3-((2,4-dioxotetrahydropyrimidin-1(2H)-yl)methyl)phenyl)piperidin-4-yl)methyl)piperazin-1-yl)pyridin-2-yl)amino)pyrimidin-4-yl)-2-methylphenyl)ethyl)-1,2,4-oxadiazole-5-carboxamide]: the IC50 in experiment [1] is more than 10000 nM. This compound returned a DC50 in experiment [2] of 29.5 nM.

For the compound `Cc1cc(-c2cc(Nc3ccc(N4CCN(C[C@@H]5CCN(c6ccc(N7CCC(=O)NC7=O)cc6)C5)CC4)cn3)ncn2)ccc1[C@@H](C)NC(=O)c1nc(C(C)(C)C)no1` [Example 24, 3-(tert-butyl)-N—((R)-1-(4-(6-((5-(4-(((S)-1-(4-(2,4-dioxotetrahydropyrimidin-1(2H)-yl)phenyl)pyrrolidin-3-yl)methyl)piperazin-1-yl)pyridin-2-yl)amino)pyrimidin-4-yl)-2-methylphenyl)ethyl)-1,2,4-oxadiazole-5-carboxamide], the IC50 in experiment [1] is more than 10000 nM. The compound further yielded a 50% degradation concentration (DC50) in experiment [2] of 5.63 nM.

Take `Cc1cc(-c2cc(Nc3cc(F)c(N4CCN(CC5CCN(c6ccc(N7CCC(=O)NC7=O)cc6)CC5)CC4)cn3)ncn2)ccc1[C@@H](C)NC(=O)c1nc(C(C)(C)C)no1` [Example 65]: the IC50 in experiment [1] was more than 10000 nM. In experiment [2], this compound registered a DC50 of 3.7 nM.

Take `COc1nc(Nc2cc(-c3ccc([C@@H](C)NC(=O)c4nc(C(C)(C)C)no4)c(C)c3)ncn2)ccc1N1CCN(CC2CCN(c3ccc(N4CCC(=O)NC4=O)cc3)CC2)CC1` [Example 63]: the IC50 in experiment [1] stood at 614 nM. Further, in experiment [2], the DC50 was found to be 0.979 nM.

As for `Cc1cc(-c2cc(Nc3ccc(N4CCC5(CCN(CC6CCN(c7ccc(N8CCC(=O)NC8=O)cc7)CC6)CC5)CC4)cn3)ncn2)ccc1[C@@H](C)NC(=O)c1nc(C(C)(C)C)no1` [Example 34, (R)-3-(tert-butyl)-N-(1-(4-(6-((5-(9-((1-(4-(2,4-dioxotetrahydropyrimidin-1(2H)-yl)phenyl)piperidin-4-yl)methyl)-3,9-diazaspiro [5.5]undecan-3-yl)pyridin-2-yl)amino)pyrimidin-4-yl)-2-methylphenyl)ethyl)-1,2,4-oxadiazole-5-carboxamide], the IC50 in experiment [1] is 891 nM. This compound came in with a 50% degradation concentration (DC50) in experiment [2] of 1.88 nM.

Turning to `Cc1cc(-c2cc(Nc3cccc(N4CCN(C5CC(c6ccc(NC7CCC(=O)NC7=O)cc6)C5)CC4)c3)ncn2)c(F)cc1[C@@H](C)NC(=O)c1nc(C(C)(C)C)no1` (stereo partly drawn) [Example 6, 3-(tert-butyl)-N-((1R)-1-(4-(6-((3-(4-(3-(4-((2,6-dioxopiperidin-3-yl)amino)phenyl)cyclobutyl)piperazin-1-yl)phenyl)amino)pyrimidin-4-yl)-5-fluoro-2-methylphenyl)ethyl)-1,2,4-oxadiazole-5-carboxamide], the IC50 in experiment [1] is more than 10000 nM. The compound also gave a DC50 in experiment [2] of 48.1 nM.

Turning to `Cc1cc(-c2cc(Nc3ccc(N4CCN([C@H]5C[C@H](c6ccc(N[C@@H]7CCC(=O)NC7=O)cc6)C5)CC4)cn3)ncn2)ccc1[C@@H](C)NC(=O)c1nc(C(C)(C)C)no1` [Example 55, 3-(tert-butyl)-N—((R)-1-(4-(6-((5-(4-((1R,3r)-3-(4-(((R)-2,6-dioxopiperidin-3-yl)amino)phenyl)cyclobutyl)piperazin-1-yl)pyridin-2-yl)amino)pyrimidin-4-yl)-2-methylphenyl)ethyl)-1,2,4-oxadiazole-5-carboxamide], the IC50 in experiment [1] is more than 10000 nM. The compound also came in with a DC50 in experiment [2] of 2.08 nM.

In the case of `CCc1nc(Nc2cc(-c3ccc([C@@H](C)NC(=O)c4nc(C(C)(C)C)no4)c(C)c3)ncn2)ccc1N1CCN(CC2CCN(c3ccc(N4CCC(=O)NC4=O)cc3)CC2)CC1` [Example 60, (R)-3-(tert-butyl)-N-(1-(4-(6-((5-(4-((1-(4-(2,4-dioxotetrahydropyrimidin-1(2H)-yl)phenyl)piperidin-4-yl)methyl)piperazin-1-yl)-6-ethylpyridin-2-yl)amino)pyrimidin-4-yl)-2-methylphenyl)ethyl)-1,2,4-oxadiazole-5-carboxamide], the IC50 in experiment [1] was more than 10000 nM. In addition, the DC50 in experiment [2] was 3.93 nM.

On to `Cc1cc(-c2cc(Nc3ccc(N4CCN(CC5CCN(c6ccc(N7CCC(=O)NC7=O)cc6)CC5)CC4)c(C)n3)ncn2)ccc1[C@@H](C)NC(=O)c1nc(C(C)(C)C)no1` [Example 61, (R)-3-(tert-butyl)-N-(1-(4-(6-((5-(4-((1-(4-(2,4-dioxotetrahydropyrimidin-1(2H)-yl)phenyl)piperidin-4-yl)methyl)piperazin-1-yl)-6-methylpyridin-2-yl)amino)pyrimidin-4-yl)-2-methylphenyl)ethyl)-1,2,4-oxadiazole-5-carboxamide], for which the IC50 in experiment [1] is more than 10000 nM. The same compound returned a 50% degradation concentration (DC50) in experiment [2] of 1.65 nM.

In the case of `Cc1cc(-c2cc(Nc3ccc(N4CCN(C(=O)Cc5cccc(N6CCC(=O)NC6=O)c5)CC4)cn3)ncn2)ccc1[C@@H](C)NC(=O)c1nc(C(C)(C)C)no1` [Example 56, (R)-3-(tert-butyl)-N-(1-(4-(6-((5-(4-(2-(3-(2,4-dioxotetrahydropyrimidin-1(2H)-yl)phenyl)acetyl)piperazin-1-yl)pyridin-2-yl)amino)pyrimidin-4-yl)-2-methylphenyl)ethyl)-1,2,4-oxadiazole-5-carboxamide], the IC50 in experiment [1] is more than 10000 nM. The compound also yielded a 50% degradation concentration (DC50) in experiment [2] of 9.9 nM.

`Cc1cc(-c2cc(Nc3ccc(N4CCN(C(=O)C5CCN(c6ccc(N7CCC(=O)NC7=O)cc6)C5)CC4)cn3)ncn2)ccc1[C@@H](C)NC(=O)c1nc(C(C)(C)C)no1` (stereo partly drawn) [Example 29, 3-(tert-butyl)-N-((1R)-1-(4-(6-((5-(4-(1-(4-(2,4-dioxotetrahydropyrimidin-1(2H)-yl)phenyl)pyrrolidine-3-carbonyl)piperazin-1-yl)pyridin-2-yl)amino)pyrimidin-4-yl)-2-methylphenyl)ethyl)-1,2,4-oxadiazole-5-carboxamide]: in experiment [1], the IC50 is more than 10000 nM. The 50% degradation concentration (DC50) in experiment [2] came out at 0.836 nM.

On to `Cc1cc(-c2ccnc(Nc3ccc(N4CCN(CC5CCN(c6ccc(N7CCC(=O)NC7=O)cc6)CC5)CC4)cc3)n2)ccc1[C@@H](C)NC(=O)c1nc(C(C)(C)C)no1` [Example 69, (R)-3-(tert-butyl)-N-(1-(4-(2-((4-(4-((1-(4-(2,4-dioxotetrahydropyrimidin-1(2H)-yl)phenyl)piperidin-4-yl)methyl)piperazin-1-yl)phenyl)amino)pyrimidin-4-yl)-2-methylphenyl)ethyl)-1,2,4-oxadiazole-5-carboxamide], for which the IC50 in experiment [1] is more than 10000 nM. This compound showed a DC50 in experiment [2] of 2.42 nM.

For `Cc1cc(-c2cc(Nc3ccc(N4CCN(CC5CCN(c6ccc(N7CCC(=O)NC7=O)cc6)CC5)CC4)nc3)ncn2)ccc1[C@@H](C)NC(=O)c1nc(C2(C)CC2)no1` [Example 10, (R)—N-(1-(4-(6-((6-(4-((1-(4-(2,4-dioxotetrahydropyrimidin-1(2H)-yl)phenyl)piperidin-4-yl)methyl)piperazin-1-yl)pyridin-3-yl)amino)pyrimidin-4-yl)-2-methylphenyl)ethyl)-3-(1-methylcyclopropyl)-1,2,4-oxadiazole-5-carboxamide], in experiment [1], the IC50 is more than 10000 nM. In experiment [2], this compound gave a DC50 of 89.5 nM.

As for `Cc1cc(-c2cc(Nc3ccc(N4CCN(CC5CCN(c6ccc(N7CCC(=O)NC7=O)c(F)c6)CC5)CC4)cc3)ncn2)c(F)cc1[C@@H](C)NC(=O)c1nc(C(C)(C)C)no1` [Example 2, (R)-3-(tert-butyl)-N-(1-(4-(6-((4-(4-((1-(4-(2,4-dioxotetrahydropyrimidin-1(2H)-yl)-3-fluorophenyl)piperidin-4-yl)methyl)piperazin-1-yl)phenyl)amino)pyrimidin-4-yl)-5-fluoro-2-methylphenyl)ethyl)-1,2,4-oxadiazole-5-carboxamide], the IC50 in experiment [1] is more than 10000 nM. In addition, half-maximal degradation in experiment [2] (DC50) was put at 236 nM.

Take `Cc1cc(-c2cc(Nc3ccc(N4CCN(CC5CCN(c6ccc(N7CCC(=O)NC7=O)cc6)CC5)CC4)cc3)ncn2)ccc1[C@@H](C)NC(=O)c1nc(C(C)(C)C)no1` [Example 7, (R)-3-(tert-butyl)-N-(1-(4-(6-((4-(4-((1-(4-(2,4-dioxotetrahydropyrimidin-1(2H)-yl)phenyl)piperidin-4-yl)methyl)piperazin-1-yl)phenyl)amino)pyrimidin-4-yl)-2-methylphenyl)ethyl)-1,2,4-oxadiazole-5-carboxamide]: the IC50 in experiment [1] is more than 10000 nM. The DC50 in experiment [2] was 12.8 nM.
